Laboratory results as given in patent publication US8455534B2, “Estrogen receptor modulators and uses thereof” (Aragon Pharmaceuticals, Inc., priority 2010, dated 2013).

Legend:
ER-α = target: T1, ER-α (Homo sapiens, UniProt P03372); assay: Breast Cancer Cell ER-α In Cell Western Assay (SP1); format: cell-based; conditions: MCF-7 cells, SP1 antibody, 4 or 24 hr post compound addition; for Emax: MCF7, read-out: ER-α In Cell Western Assay (SP1) Max Response; for DC50: read-out: ER-α In Cell Western Assay (SP1) IC50
T1 sequence (P03372 1-595): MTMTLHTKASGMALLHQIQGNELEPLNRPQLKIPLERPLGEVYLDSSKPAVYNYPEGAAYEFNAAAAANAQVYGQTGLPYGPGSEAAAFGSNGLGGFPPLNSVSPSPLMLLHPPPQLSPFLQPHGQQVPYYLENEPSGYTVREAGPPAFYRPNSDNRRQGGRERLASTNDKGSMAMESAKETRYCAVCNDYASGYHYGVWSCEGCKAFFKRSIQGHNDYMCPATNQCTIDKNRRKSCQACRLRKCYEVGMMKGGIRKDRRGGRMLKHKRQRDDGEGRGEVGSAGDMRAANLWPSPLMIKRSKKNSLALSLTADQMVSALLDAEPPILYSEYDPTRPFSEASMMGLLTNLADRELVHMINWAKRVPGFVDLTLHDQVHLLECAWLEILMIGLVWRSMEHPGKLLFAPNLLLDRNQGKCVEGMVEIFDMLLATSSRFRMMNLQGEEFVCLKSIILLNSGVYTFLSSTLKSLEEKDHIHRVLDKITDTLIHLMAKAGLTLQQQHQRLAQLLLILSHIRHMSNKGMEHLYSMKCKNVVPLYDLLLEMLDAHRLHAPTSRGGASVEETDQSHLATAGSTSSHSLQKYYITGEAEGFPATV
Summary of the method: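 ER-α protein levels measured by in-cell western with SP1 antibody, ratioed to DRAQ5 DNA signal and given as percent of untreated controls. Compounds added at 0.3–0.000003 μM final (eleven semilog points) to adherent MCF-7 cells in stripped serum; exposure 4 or 24 h before fixation.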

MCF-7 cells = assay: Breast Cancer Cell Viability Assay (MCF-7, CellTiter-Glo); format: cell-based; conditions: 5 days' compound exposure; for IC50: Homo sapiens, MCF7, 120 h
Summary of the method: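 MCF-7 cells, 320 per well in RPMI with 10% FBS and 20 mM HEPES, adhered overnight, then exposed 5 days to an eleven-point semilog dilution (final 0.3-0.000003 μM). CellTiter-Glo luminescence read; % viability = (sample − cell-free background)/(untreated − background) × 100.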

| Emax (ER-α) | DC50 (ER-α) | IC50 (MCF-7 cells) | Structure (SMILES) | MCF7 Viability Assay Max Response (MCF-7 cells) |
| --- | --- | --- | --- | --- |
| ≥ 40% | ≤ 0.1 µM | ≤ 0.1 µM | CC(C)/C(=C(/c1ccc(/C=C/C(=O)O)cc1)c1ccc2[nH]ncc2c1)c1ccccc1 [Compound 55, (E)-3-(4-((E)-1-(1H-Indazol-5-yl)-3-methyl-2-phenylbut-1-en-1-yl)phenyl)acrylic acid] | ++ (++ = a single % value ≧ 40%) |
| ≥ 40% | ≤ 0.1 µM | ≤ 0.1 µM | O=C(O)/C=C/c1ccc(/C(=C(/CC2CC2)c2ccccc2)c2ccc3[nH]ncc3c2)cc1 [Compound 56, (E)-3-(4-((E)-3-Cyclopropyl-1-(1H-indazol-5-yl)-2-phenylprop-1-en-1-yl)phenyl)acrylic acid] | ++ (++ = a single % value ≧ 40%) |
| ≥ 40% | ≤ 0.1 µM | ≤ 0.1 µM | O=C(O)/C=C/c1ccc(/C(=C(\c2ccccc2Cl)C2CC2)c2ccc3[nH]ncc3c2)cc1 [Compound 57, (E)-3-(4-((E)-2-(2-Chlorophenyl)-2-cyclopropyl-1-(1H-indazol-5-yl)vinyl)phenyl)acrylic acid] | ++ (++ = a single % value ≧ 40%) |
| ≥ 40% | ≤ 0.1 µM | ≤ 0.1 µM | CC/C(=C(/c1ccc(/C=C/C(=O)O)cc1)c1cc2cn[nH]c2cc1F)c1ccccc1 [Compound 58, (E)-3-(4-((E)-1-(6-Fluoro-1H-indazol-5-yl)-2-phenylbut-1-en-1-yl)phenyl)acrylic acid] | ++ (++ = a single % value ≧ 40%) |
| ≥ 40% | ≤ 0.1 µM | ≤ 0.1 µM | CCCC/C(=C(/c1ccc(/C=C/C(=O)O)cc1)c1ccc2[nH]ncc2c1)c1ccccc1 [Compound 59, (E)-3-(4-((E)-1-(1H-Indazol-5-yl)-2-phenylhex-1-en-1-yl)phenyl)acrylic acid] | ++ (++ = a single % value ≧ 40%) |
| ≥ 40% | ≤ 0.1 µM | ≤ 0.1 µM | O=C(O)/C=C/c1ccc(/C(=C(/CC2CCCC2)c2ccccc2)c2ccc3[nH]ncc3c2)cc1 [Compound 60, (E)-3-(4-((E)-3-Cyclopentyl-1-(1H-indazol-5-yl)-2-phenylprop-1-en-1-yl)phenyl)acrylic acid] | ++ (++ = a single % value ≧ 40%) |
| ≥ 40% | ≤ 0.1 µM | ≤ 0.1 µM | CC/C(=C(/c1ccc(/C=C/C(=O)O)cc1)c1ccc2[nH]ncc2c1F)c1ccc(F)cc1Cl [Compound 61, (E)-3-(4-((E)-2-(2-Chloro-4-fluorophenyl)-1-(4-fluoro-1H-indazol-5-yl)but-1-en-1-yl)phenyl)acrylic acid] | ++ (++ = a single % value ≧ 40%) |
| ≥ 40% | ≤ 0.1 µM | ≤ 0.1 µM | CC/C(=C(/c1ccc(/C=C/C(=O)O)cc1)c1cc(F)c2[nH]ncc2c1)c1ccccc1 [Compound 62, (E)-3-(4-((E)-1-(7-Fluoro-1H-indazol-5-yl)-2-phenylbut-1-en-1-yl)phenyl)acrylic acid] | ++ (++ = a single % value ≧ 40%) |
| ≥ 40% | ≤ 0.1 µM | ≤ 0.1 µM | CC(C)C/C(=C(/c1ccc(/C=C/C(=O)O)cc1)c1ccc2[nH]ncc2c1)c1ccc(F)cc1Cl [Compound 63, (E)-3-(4-((E)-2-(2-Chloro-4-fluorophenyl)-1-(1H-indazol-5-yl)-4-methylpent-1-en-1-yl)phenyl)acrylic acid] | ++ (++ = a single % value ≧ 40%) |
| ≥ 40% | ≤ 0.1 µM | ≤ 0.1 µM | O=C(O)/C=C/c1ccc(/C(=C(\c2ccccc2)C(F)F)c2ccc3[nH]ncc3c2)cc1 [Compound 64, (E)-3-(4-((Z)-3,3-Difluoro-1-(1H-indazol-5-yl)-2-phenylprop-1-en-1-yl)phenyl)acrylic acid] | ++ (++ = a single % value ≧ 40%) |
